Entries after “also recorded” stand apart in the source; their conditions may differ.
Columns and labels:
M. tuberculosis [1] = assay: microbe, parasite or virus in culture; type: cell-based
M. tuberculosis [2] = type: cell-based

SMILES | Sensitive (S) or Resistant (R) (M. tuberculosis [1]) | increase in minimal inhibitory concentration (MIC) (M. tuberculosis [1]) [fold] | increase in the MIC (M. tuberculosis [1]) [fold] | minimal inhibitory concentration (MIC) (M. tuberculosis [1]) [µg/mL] | expression signature (MSD Z-score) (M. tuberculosis [2]) | expression signature induction upon exposure (M. tuberculosis [2]) | transcriptional response (M. tuberculosis [2]) | transcriptional response / expression signature (M. tuberculosis [2])
NNC(=O)c1ccncc1 [Isoniazid] | S and R | > 100 | 8 | > 6.4 | resistant signature | no expression signature induction; also recorded: clearly shows induction of an expression signature | failed to elicit a transcriptional response | responds in a susceptible manner; also recorded: susceptible signature
[H]/N=C(/N)N[C@H]1[C@H](O)[C@@H](O)[C@H](O[C@@H]2O[C@@H](C)[C@](O)(C=O)[C@H]2O[C@@H]2O[C@@H](CO)[C@H](O)[C@@H](O)[C@@H]2NC)[C@@H](N/C(N)=N\[H])[C@@H]1O [Streptomycin] | S and R |  |  |  |  |  |  | 

Source: patent US9885088B2, “Rapid phenotypic diagnosis of pathogens and drug resistance using transcriptional expression signatures” (priority 2010, dated 2018)
